Data on ten compounds can be found in patent US9242999B2, “Cephem compound having pyridinium group” (priority 2011, dated 2016).

Each structure is given as a SMILES string. ≈ marks a conversion by molar mass, not a printed value.

Format in all cases: cell-based
One assay deals with P. aeruginosa SR24. Description: MIC, CLSI broth microdilution, cation-adjusted Mueller Hinton broth with human apo-transferrin (Test Example 1). The following applies: no enzyme, inoculum 5×10^5 cfu/mL; for Minimum Inhibitory Concentration (MIC) P. aeruginosa SR24: Table 2, ceftazidime resistance strain; for MIC: Pseudomonas aeruginosa, SR24, Table 2, ceftazidime resistance strain, read-out: Minimum Inhibitory Concentration (MIC) P. aeruginosa SR24. Here is the method: (§1) Measurement of Minimum Inhibitory Concentration (MIC: μg/mL) was conducted according to CLSI (Clinical and Laboratory Standards Institute) method, and the amount of bacteria for inoculation was 5×10^5 cfu/mL, and cation-adjusted Mueller Hinton broth containing human apo-transferrin was used as a test medium, and the experiment was conducted using broth microdilution method. The bacteria used are listed below.

Another assay deals with P. aeruginosa SR27060. The description is as above. To be noted: inoculum 5×10^5 cfu/mL; for MIC: Pseudomonas aeruginosa, SR27060, Table 2, IMP-1 MBL producing strain (carbapenem resistance strain), read-out: Minimum Inhibitory Concentration (MIC) P. aeruginosa SR27060. The method, then:
as §1

The subject of a further assay is A. baumannii SR27323. The description is as above. To be noted: inoculum 5×10^5 cfu/mL; for Minimum Inhibitory Concentration (MIC) A. baumannii SR27323: Table 2, OXA-23, OXA-58 carbapenemase producing strain; for MIC: Acinetobacter baumannii, SR27323, Table 2, OXA-23, OXA-58 carbapenemase producing strain, read-out: Minimum Inhibitory Concentration (MIC) A. baumannii SR27323. Here is the method: as §1

The subject of assay [1] is E. coli ATCCBAA-200. The assay is described as above. To be noted: inoculum 5×10^5 cfu/mL; for MIC: Escherichia coli, ATCCBAA200, Table 2, SHV-4 ESBL producing strain, read-out: Minimum Inhibitory Concentration (MIC) E. coli ATCC BAA-200. Here is the method:
as §1

The next assay has as its system E. coli ATCCBAA-199. The assay is described as above. The following applies: inoculum 5×10^5 cfu/mL; for MIC: Escherichia coli, ATCCBAA199, Table 2, SHV-3 ESBL producing strain, read-out: Minimum Inhibitory Concentration (MIC) E. coli ATCC BAA-199. The method, then: as §1
Assay [2] concerns K. pneumoniae ATCCBAA-1705. Described as above. To be noted: inoculum 5×10^5 cfu/mL; for MIC: Klebsiella pneumoniae, ATCCBAA1705, Table 2, KPC-2 carbapenemase producing strain, read-out: Minimum Inhibitory Concentration (MIC) K. pneumoniae ATCC BAA-1705. Here is the method: as §1
The next assay deals with E. cloacae NCTC13464. Nature of the assay: MIC, CLSI broth microdilution, cation-adjusted iso-sensitest broth with human apo transferrin (Test Example 2). The following applies: Enterobacter cloacae, Table 5, CTX-M group 9 ESBL producing strain, inoculum 5×10^5 cfu/mL, read-out: Minimum Inhibitory Concentration (MIC) E. cloacae NCTC 13464. Here is the method: (§2) Measurement of Minimum Inhibitory Concentration (MIC: μg/mL) was conducted according to CLSI (Clinical and Laboratory Standards Institute) method, and the amount of bacteria for inoculation was 5×10^5 cfu/mL, and cation-adjusted iso-sensitest broth containing human apo transferrin was used as a test medium, and the experiment was conducted using broth microdilution method. The bacteria used are listed below.

The subject of assay [3] is E. coli ATCCBAA-200. The assay is described as above. To be noted: Escherichia coli, ATCCBAA200, Table 5, SHV-4 ESBL producing strain, inoculum 5×10^5 cfu/mL, read-out: Minimum Inhibitory Concentration (MIC) E. coli ATCC BAA-200. The method, then:
as §2

In the next assay the test system is E. coli ATCCBAA-196. Described as above. To be noted: Escherichia coli, ATCCBAA196, Table 5, TEM-10 ESBL producing strain, inoculum 5×10^5 cfu/mL, read-out: Minimum Inhibitory Concentration (MIC) E. coli ATCC BAA-196. Here is the method:
as §2

As for `CC(C)(O/N=C(\C(=O)N[C@@H]1C(=O)N2C(c3nnn[n-]3)=C(CSc3cc[n+](Cc4ccc(O)c(O)c4)cc3)CS[C@H]12)c1csc(N)n1)C(=O)O` [Compound I-2], the “Minimum Inhibitory Concentration (MIC) P. aeruginosa SR24” value with P. aeruginosa SR24 is 0.063 µg/mL. Further, the MIC in the assay with P. aeruginosa SR27060 is 0.5 µg/mL (≈ 0.69 µM); with E. coli ATCCBAA-200 [1] it was at most 0.031 µg/mL; in the assay with E. coli ATCCBAA-199, at most 0.031 µg/mL; in assay [2], at most 0.031 µg/mL. For the same compound, in the assay on A. baumannii SR27323, the “Minimum Inhibitory Concentration (MIC) A. baumannii SR27323” value is recorded as “≦0.031 μg/ml”.

Regarding `C[C@H](O/N=C(\C(=O)N[C@@H]1C(=O)N2C(c3nnn[n-]3)=C(CSc3cc[n+](CC(=O)c4ccc(O)c(O)c4)cc3)CO[C@H]12)c1nc(N)sc1Cl)C(=O)O` [Compound I-8], the MIC in the assay with P. aeruginosa SR24 is 0.25 µg/mL (≈ 0.33 µM); in the assay on P. aeruginosa SR27060 it was 16 µg/mL (≈ 21.1 µM); in the assay on A. baumannii SR27323, 2 µg/mL (≈ 2.64 µM); in the assay with E. coli ATCCBAA-200 [1], 0.25 µg/mL (≈ 0.33 µM); with E. coli ATCCBAA-199, 0.063 µg/mL (≈ 0.0832 µM); in assay [2], at most 0.031 µg/mL.

Regarding `CC(C)(O/N=C(\C(=O)N[C@@H]1C(=O)N2C(c3nnn[n-]3)=C(CSc3cc[n+](CC(=O)c4ccc(O)c(O)c4)cc3)C[S+]([O-])[C@H]12)c1csc(N)n1)C(=O)O` (some centres unmarked) [Compound I-7], the MIC is 0.5 µg/mL (≈ 0.65 µM) in the assay with P. aeruginosa SR24; 4 µg/mL (≈ 5.2 µM) in the assay on P. aeruginosa SR27060; 2 µg/mL (≈ 2.6 µM) in the assay on A. baumannii SR27323; at most 0.031 µg/mL in the assay with E. coli ATCCBAA-200 [1]; at most 0.031 µg/mL with E. coli ATCCBAA-199; at most 0.031 µg/mL in assay [2].

Regarding `CC(C)(O/N=C(\C(=O)N[C@@H]1C(=O)N2C(c3nnn[n-]3)=C(CSc3cc[n+](-c4ccc(O)c(O)c4Cl)cc3)CS[C@H]12)c1nsc(N)n1)C(=O)[O-].[Na+]` [Compound I-17], the MIC in the assay with E. cloacae NCTC13464 was found to be 0.063 µg/mL; in the assay on E. coli ATCCBAA-200 [3], 0.125 µg/mL; with E. coli ATCCBAA-196 it was 0.125 µg/mL.

`CC(C)(O/N=C(\C(=O)N[C@@H]1C(=O)N2C(c3nnn[n-]3)=C(CSc3cc[n+](-c4ccc(O)c(O)c4)cc3)CS[C@H]12)c1csc(N)n1)C(=O)O` [Compound I-6]: the MIC in the assay on P. aeruginosa SR24 was 0.063 µg/mL (≈ 0.0886 µM); with A. baumannii SR27323 it was 0.125 µg/mL (≈ 0.176 µM); in the assay with E. coli ATCCBAA-200 [1], at most 0.031 µg/mL; with E. coli ATCCBAA-199, at most 0.031 µg/mL; in assay [2], at most 0.031 µg/mL.

`C[C@H](O/N=C(\C(=O)N[C@@H]1C(=O)N2C(c3nnn[n-]3)=C(CSc3cc[n+](CC(=O)c4ccc(O)c(O)c4)cc3)CS[C@H]12)c1nc(N)sc1Cl)C(=O)O` [Compound I-5]: the MIC with P. aeruginosa SR24 is 0.125 µg/mL (≈ 0.162 µM); in the assay with P. aeruginosa SR27060, 1 µg/mL (≈ 1.29 µM); in the assay on A. baumannii SR27323 it was 0.5 µg/mL (≈ 0.647 µM); in the assay with E. coli ATCCBAA-200 [1] it was 0.063 µg/mL (≈ 0.0815 µM); with E. coli ATCCBAA-199, at most 0.031 µg/mL; in assay [2], at most 0.031 µg/mL.

In the case of `CC(C)(O/N=C(\C(=O)N[C@@H]1C(=O)N2C(c3nnn[n-]3)=C(CSc3cc[n+](Cc4ccc(O)c(O)c4)cc3)CS[C@H]12)c1csc(N)n1)C(=O)O` [Compound I-1], the “Minimum Inhibitory Concentration (MIC) P. aeruginosa SR24” value in the assay with P. aeruginosa SR24 stood at 0.25 µg/mL. Besides, the “Minimum Inhibitory Concentration (MIC) P. aeruginosa SR27060” value with P. aeruginosa SR27060 (Table 2, IMP-1 MBL producing strain (carbapenem resistance strain)) amounted to 1. μg/ml. Moreover, the “Minimum Inhibitory Concentration (MIC) A. baumannii SR27323” value in the assay on A. baumannii SR27323 came to 1 µg/mL. The “Minimum Inhibitory Concentration (MIC) E. coli ATCC BAA-200” value with E. coli ATCCBAA-200 [1] (Table 2, SHV-4 ESBL producing strain) was “≦0.031 μg/ml”. Moreover, in the assay with E. coli ATCCBAA-199 (Table 2, SHV-3 ESBL producing strain), the “Minimum Inhibitory Concentration (MIC) E. coli ATCC BAA-199” value is on record as “≦0.031 μg/ml”. Also, in [2] (Table 2, KPC-2 carbapenemase producing strain), the “Minimum Inhibitory Concentration (MIC) K. pneumoniae ATCC BAA-1705” value is on record as “≦0.031 μg/ml”.

In the case of `CC(C)(O/N=C(\C(=O)N[C@@H]1C(=O)N2C(c3nnn[n-]3)=C(CSc3cc[n+](CC(=O)c4ccc(O)c(O)c4)cc3)CS[C@H]12)c1nsc(N)n1)C(=O)O` [Compound I-4], the MIC is 0.125 µg/mL (≈ 0.166 µM) in the assay on P. aeruginosa SR24; 2 µg/mL (≈ 2.65 µM) in the assay with P. aeruginosa SR27060; 1 µg/mL (≈ 1.33 µM) in the assay with A. baumannii SR27323; 0.25 µg/mL (≈ 0.332 µM) in the assay on E. coli ATCCBAA-200 [1]; 0.125 µg/mL (≈ 0.166 µM) in the assay with E. coli ATCCBAA-199; at most 0.031 µg/mL in assay [2].

Turning to `CC(C)(O/N=C(\C(=O)N[C@@H]1C(=O)N2C(c3nnn[n-]3)=C(CSc3cc[n+](CC(=O)c4ccc(O)c(O)c4Cl)cc3)CS[C@H]12)c1nc(N)sc1Cl)C(=O)[O-].[Na+]` [Compound I-15], the MIC was 0.125 µg/mL with E. cloacae NCTC13464, at most 0.031 µg/mL in the assay on E. coli ATCCBAA-200 [3] and at most 0.031 µg/mL in the assay on E. coli ATCCBAA-196.

Regarding `CC(C)(O/N=C(\C(=O)N[C@@H]1C(=O)N2C(C(=O)[O-])=C(CSc3cc[n+](CC(=O)c4ccc(O)c(O)c4)cc3)CS[C@H]12)c1csc(N)n1)C(=O)O` [Comparative Compound 1, reference compound], the MIC with P. aeruginosa SR24 is 0.25 µg/mL (≈ 0.343 µM); in the assay with P. aeruginosa SR27060, above 32 µg/mL; in the assay on A. baumannii SR27323, 0.5 µg/mL (≈ 0.686 µM); with E. coli ATCCBAA-200 [1], 2 µg/mL (≈ 2.74 µM); in the assay on E. coli ATCCBAA-199 it was 1 µg/mL (≈ 1.37 µM); in assay [2] it was 0.25 µg/mL (≈ 0.343 µM).
